Patent EP0501354B1, “Anticataract composition” (Senju Pharmaceutical Co., Ltd., priority 1991, dated 1992)

Legend:
[1] = tested on: streptozotocin-induced diabetic cataract; test: Inhibitory effect on streptozotocin-induced diabetic cataract (slit lamp, rating scale of Sasaki et al.); type: in vivo, male SD rats; details: for time at which cataract scores were reached compared with control group / degree of progression of cataract, time series analysis of variance vs control group: 100 mg/kg/day intraperitoneally once a day for 56 days; for time at which cataract scores were reached compared with control group: rating scale of Sasaki et al. 0-6; for degree of progression of cataract, time series analysis of variance vs control group: scored every seven days; for vacuolation rate (of the eyes): after 7 days, 100 mg/kg/day intraperitoneally once a day, STZ 70 mg/kg i.v. rats, control group 45%
Description: Streptozotocin (hereafter abbreviated as STZ), 70 mg/kg, was administered intravenously to 28 male SD rats aged 4 weeks to induce diabetes. Thereafter, the animals were divided into three groups (two groups consisting of 10 animals each and a group consisting of 8 animals). […] The lens was examined with a slit lamp under mydriasis with Mydrin-P before the beginning of drug administration and every seven days after initiation of administration. The degree of cataract was scored according to the rating scale of Sasaki et al. (Ophthalmic Res. 15: 185-190, 1983) and the anticataract activity of each drug was tested by time series analysis of variance. Body weights were taken on each observation day. […] Rating scale of Sasaki et al. 0: No abnormality. 1: Vacuoles are present in the equator of the lens. 2: Vacuoles spread toward the anterior pole beneath the cortex of the anterior lens capsule. 3: Vacuole begin to merge. 4: The deep layer of the cortex of the anterior lens capsule is cloudy. 5: The central part of the lens is milk white in color. 6: Virtually the entire lens is milk white in color (mature cataract).

[2] = Body weight during treatment of streptozotocin-diabetic rats; type: in vivo, male SD rats; details: 100 mg/kg/day intraperitoneally once a day for 56 days; STZ-diabetic rats
Description: Streptozotocin (hereafter abbreviated as STZ), 70 mg/kg, was administered intravenously to 28 male SD rats aged 4 weeks to induce diabetes. Thereafter, the animals were divided into three groups (two groups consisting of 10 animals each and a group consisting of 8 animals). One group received 2% glutathione (dissolved in physiological saline, hereafter referred to as GSH group), another group S-(diethyl α,β-carboxyethyl)glutathione sodium (dissolved in physiological saline, hereafter referred to as DCE-EtGS group), and a third group physiological saline (hereafter referred to as control group), all intraperitoneally in a volume of 0.5 ml/100 g body weight once a day for 56 days (100 mg/kg/day as active substance). The lens was examined with a slit lamp under mydriasis with Mydrin-P before the beginning of drug administration and every seven days after initiation of administration. The degree of cataract was scored according to the rating scale of Sasaki et al. (Ophthalmic Res. 15: 185-190, 1983) and the anticataract activity of each drug was tested by time series analysis of variance. Body weights were taken on each observation day. Incidentally, blood glucose levels were determined 5 days after administration of STZ and the study was continued only after confirmation of hyperglycemia.

Structure (SMILES) | time at which cataract scores were reached compared with control group [1] | degree of progression of cataract, time series analysis of variance vs control group [1] | vacuolation rate (of the eyes) [1] [%] | Body weight gain vs control group [2]
CCOC(=O)CC(SCC(NC(=O)CCC(N)C(=O)O)C(=O)NCC(=O)O)C(=O)OCC (stereo not drawn) [DCE-EtGS, S-(Diethyl α,β-dicarboxyethyl)glutathione sodium] | scores of 2, 4, 5 and 6 being reached later than in the control group | significant delay of progression | 25 | significantly greater
N[C@@H](CCC(=O)N[C@@H](CS)C(=O)NCC(=O)O)C(=O)O [GSH, glutathione, reference compound] | scores of 5 and 6 were reached later than in the control group | no significant difference from the control group | 56.3 | –
